Patent publication US20160194299A1 (priority 2013, published 2016)
≈ marks a conversion by molar mass, not a printed value. Read-outs that look alike come from different tables or passages of the source.

Tests used:
Mtb [1] = experiment: microbe, parasite or virus in culture; format: cell-based, Mycobacterium tuberculosis; details: Mycobacterium tuberculosis
Mtb [2] = experiment: microbe, parasite or virus in culture; format: cell-based, Mycobacterium tuberculosis; details: Mycobacterium tuberculosis, read-out: MIC (III)
in vitro = details: African green monkey
[3] = read-out: MIC, microplate alamar blue assay (MABA; I)

| SMILES | MIC (Mtb [1]; read-out: MIC (I)) [µg/mL] | MIC (Mtb [2]) [µg/mL] | CC50 (in vitro) [µg/mL] | MIC (Mtb [1]; [3]) [µg/mL] |
| --- | --- | --- | --- | --- |
| CCOC(=O)NC(=O)c1ccsc1NC(=O)c1cnn2cccnc12 [Compound 253] | > 3 | > 25 |  |  |
| CCOC(=O)NC(=O)c1ccsc1NC(=O)c1ccn2nccc2c1 [Compound 251] | < 1 | 5 to 25 (≈ 14 to 69.8 µM) |  |  |
| CCOC(=O)NC(=O)c1ccsc1NC(=O)c1nc2c(s1)CCN(S(C)(=O)=O)C2 [Compound 96] | < 1 | > 25 |  |  |
| CCOC(=O)NC(=O)c1ccsc1NC(=O)c1cc2ncccn2n1 [Compound 250] | < 1 | 5 to 25 (≈ 13.9 to 69.6 µM) |  |  |
| CCOC(=O)NC(=O)c1ccsc1NC(=O)c1cnc2ccnn2c1 [Compound 81] | < 1 | > 25 |  |  |
| CC(OC(=O)NC(=O)c1ccsc1NC(=O)c1nc2cnccc2s1)C(F)(F)F (centres unmarked) [Compound 325] | < 1 | > 25 |  |  |
| CCOC(=O)NC(=O)c1ccsc1NC(=O)c1nc2c(s1)CCNC2=O [Compound 55] | > 3 | > 25 |  |  |
| CCOC(=O)NC(=O)c1ccsc1NC(=O)c1cn2ccncc2n1 [Compound 78] | > 3 | > 25 |  |  |
| CCOC(=O)NC(=O)c1ccsc1NC(=O)c1ccn2nccc2n1 [Compound 252] | > 3 | > 25 |  |  |
| O=C(NC(=O)c1ccsc1NC(=O)c1nc2ccccc2s1)OC1CCCCC1 [Compound 30] | < 1 |  | > 50 |  |
| O=C(NC(=O)c1cc(F)sc1NC(=O)c1nc2ccccc2s1)OCC(F)(F)F [Compound 17] | < 1 |  | < 25 |  |
| CC(OC(=O)NC(=O)c1ccsc1NC(=O)c1cnc2ccnn2c1)C(F)(F)F (centres unmarked) [Compound 326] | > 3 | > 25 |  |  |
| O=C(Nc1sccc1C(=O)OC1CCCCC1)c1nc2ccccc2s1 [Compound 430] |  |  | > 50 | > 3 |
| CC(C)OC(=O)NC(=O)c1ccsc1NC(=O)c1cn2ccc(C#N)cc2n1 [Compound 433] |  |  | 25 to 50 (≈ 62.9 to 126 µM) | 1 to 3 (≈ 2.52 to 7.55 µM) |
| CC(C)OC(=O)NC(=O)c1ccsc1NC(=O)c1cn2cc(S(C)(=O)=O)ccc2n1 [Compound 439] |  |  | 25 to 50 (≈ 55.5 to 111 µM) | > 3 |
| CN(C)CCOC(=O)NC(=O)c1ccsc1NC(=O)c1nc2ccccc2s1 [Compound 39] | > 3 |  | > 50 |  |
| CCOC(=O)NC(=O)c1c(NC(=O)c2nc3ccccc3s2)sc2c1CCOC2 [Compound 242] |  | > 25 | > 50 |  |
| CC(C)OC(=O)NC(=O)c1ccsc1NC(=O)c1cc(=O)c2ccccc2o1 [Compound 401] |  |  | < 25 | < 1 |
| CCOC(=O)NC(=O)c1ccsc1NC(=O)c1cc2cccc(F)c2s1 [Compound 407] |  |  | < 25 | < 1 |
| CCOC(=O)NC(=O)c1ccsc1NC(=O)c1ccc2ocnc2c1 [Compound 26] | < 1 |  | > 50 |  |
| CCOC(=O)NC(=O)c1ccsc1NC(=O)c1nc2ccc(OC)cc2s1 [Compound 412] |  |  | > 50 | < 1 |
| CCOC(=O)NC(=O)c1ccsc1NC(=O)c1nc2c(s1)CCN(CC)C2 [Compound 79] | 1 to 3 (≈ 2.45 to 7.34 µM) | > 25 |  |  |
| O=C(Nc1sccc1C(=O)Nc1nccs1)c1nc2cnccc2s1 [Compound 435] |  |  | 25 to 50 (≈ 64.5 to 129 µM) | > 3 |
| COCCOC(=O)NC(=O)c1ccsc1NC(=O)c1nc2ncccc2s1 [Compound 436] |  |  | 25 to 50 (≈ 61.5 to 123 µM) | > 3 |
| CCOC(=O)NC(=O)c1c(C2CC2)csc1NC(=O)c1nc2ccccc2s1 [Compound 245] | > 3 | > 25 |  |  |
